Calls of active or inactive are those of the source. No cut-off for these calls is given here.
Legend:
[1] = target: Hemagglutinin (Influenza A virus (A/Puerto Rico/8/1934(H1N1)), UniProt P03452); assay: Binding affinity to Influenza A virus (A/Puerto Rico/8/34) Hemagglutinin by surface plasmon resonance (SPR) assay
[2] = Cytotoxicity against dog MDCK cells assessed as cell viability measured after 48 hrs by MTT assay; type: toxicity, cell-based, Canis lupus familiaris
[3] = Selectivity index, ratio of CC50 for cytotoxicity against dog MDCK cells to IC50 for anti-viral activity against Influenza A virus (A/Puerto Rico/8/34 infected in MDCK cells; type: toxicity, cell-based; conditions: read-out: Selectivity Index
Influenza A virus [4] = assay: In vivo antiviral activity against Influenza A virus (A/Puerto Rico/8/34) infected in BALB/c mouse assessed as increase in mouse survival at 10 mg/kg, po once daily treated after 4 hrs of inoculation for 14 days relative to control; type: functional; conditions: A/Puerto Rico/8/34, 336 h, time 14 day
[5] = Toxicity in BALB/c mouse infected with Influenza A virus (A/Puerto Rico/8/34) assessed as death at 10 mg/kg, po after 11 days; type: organism-based; conditions: in vivo, 264 h, time 11 day
[6] = Toxicity in BALB/c mouse infected with Influenza A virus (A/Puerto Rico/8/34) assessed as decrease in body weight at 10 mg/kg, po upto 8 days; type: organism-based; conditions: in vivo, 192 h, time < 8 day
Influenza A virus [7] = assay: (§1) In vivo antiviral activity against Influenza A virus (A/Puerto Rico/8/34) infected in BALB/c mouse assessed as intact columnar epithelia in bronchiole without inflammatory cell infiltration at 10 mg/kg, po once daily treated after 4 hrs of inoculation for 4 days relative to control by HE staining based histopathological analysis; type: functional, organism-based
[8] = target: Hemagglutinin (Influenza A virus (A/Puerto Rico/8/1934(H1N1))) (UniProt P03452); assay: Blockade of Influenza A virus (A/Puerto Rico/8/34) Hemagglutinin-mediated membrane fusion in Vero cells expressing PR8 HA assessed as syncytium formation at pH 5 and measured at 20 uM measured after 2 hrs by polykaryon assay; type: cell-based
Sequence of Hemagglutinin (Influenza A virus (A/Puerto Rico/8/1934(H1N1))) (P03452 whole entry, the tested form may be a part): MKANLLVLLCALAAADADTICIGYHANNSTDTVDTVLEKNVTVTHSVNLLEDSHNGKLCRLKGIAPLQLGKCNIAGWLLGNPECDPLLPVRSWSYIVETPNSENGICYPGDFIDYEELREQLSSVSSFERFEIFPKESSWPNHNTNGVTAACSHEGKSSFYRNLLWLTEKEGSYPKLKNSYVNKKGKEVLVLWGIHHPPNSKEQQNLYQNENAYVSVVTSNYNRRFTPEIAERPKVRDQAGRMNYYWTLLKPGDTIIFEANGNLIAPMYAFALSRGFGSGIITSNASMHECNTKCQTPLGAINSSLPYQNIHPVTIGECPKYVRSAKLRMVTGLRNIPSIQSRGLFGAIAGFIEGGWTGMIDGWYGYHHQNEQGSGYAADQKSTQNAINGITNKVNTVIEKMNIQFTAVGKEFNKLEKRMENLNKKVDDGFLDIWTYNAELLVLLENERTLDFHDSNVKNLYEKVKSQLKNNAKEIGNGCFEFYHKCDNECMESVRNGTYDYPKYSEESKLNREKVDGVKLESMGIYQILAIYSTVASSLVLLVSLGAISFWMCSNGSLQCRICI

[9] = target: Hemagglutinin (Influenza A virus (A/Puerto Rico/8/1934(H1N1))) (UniProt P03452); assay: Blockade of Influenza A virus (A/Puerto Rico/8/34) Hemagglutinin-mediated membrane fusion in Vero cells expressing PR8 HA assessed as syncytium formation at pH 5 at 5 to 20 uM by quantitative membrane fusion assay; type: cell-based; conditions: dose 5-20 µM
Influenza A virus [10] = assay: Potency index, ratio of penindolone-IC50 to test compound IC50 for anti-viral activity against Influenza A virus (A/Puerto Rico/8/34) infected in MDCK cells; type: functional
Influenza A virus [11] = assay: Anti-viral activity against Influenza A virus H1N1 (A/Virginia09/ATCC1/2009; Vir09) infected in MDCK cells assessed as inhibition of virus cytopathic effect measured after 48 hrs by crystal violet staining based assay; type: functional
Influenza A virus [12] = assay: Anti-viral activity against Influenza A virus H1N1 (A/WSN/33; WSN) infected in MDCK cells assessed as inhibition of virus cytopathic effect measured after 48 hrs by crystal violet staining based assay; type: functional
Influenza A virus [13] = assay: Anti-viral activity against Influenza virus H3N2 (A/Aichi/2/68; Aichi) infected in MDCK cells assessed as inhibition of virus cytopathic effect measured after 48 hrs by crystal violet staining based assay; type: functional
Influenza B virus = assay: Anti-viral activity against Influenza B virus strain (B/Hong Kong/5/72) infected in MDCK cells assessed as inhibition of virus cytopathic effect measured after 48 hrs by crystal violet staining based assay; type: functional
[14] = Cytotoxicity against human A549 cells assessed as cell viability measured after 48 hrs by MTT assay; type: toxicity, cell-based
[15] = Cytotoxicity against african green monkey Vero cells assessed as cell viability measured after 48 hrs by MTT assay; type: toxicity, cell-based; conditions: chlorocebus sabaeus
Influenza A virus [16] = assay: Anti-viral activity against Influenza A virus H1N1 (A/Puerto Rico/8/34) infected (at MOI = 3) in MDCK cell assessed as reduction in hemagglutinin titer using chicken RBC measured after 60 mins by hemagglutinin assay; type: functional, organism-based; conditions: H1N1 A/Puerto Rico/8/34, MDCK, 1 h
Influenza A virus [17] = assay: Anti-viral activity against Influenza H1N1 virus (A/Virginia09/ATCC1/2009; Vir09) infected (at MOI = 3) in MDCK cell assessed as reduction in hemagglutinin titer using chicken RBC measured after 60 mins by hemagglutinin assay; type: functional, organism-based; conditions: H1N1 A/Virginia09/ATCC1/2009, dose 5-20 µM
Influenza A virus [18] = assay: Anti-viral activity against Influenza virus H3N2 (A/Aichi/2/68; Aichi) infected (at MOI = 3) in MDCK cell assessed as reduction in hemagglutinin titer using chicken RBC measured after 60 mins by hemagglutinin assay; type: functional, organism-based; conditions: 1 h
MDCK [19] = assay: Reduction in HA2 protein expression in Influenza A virus (A/Puerto Rico/8/34) infected in MDCK cell after 60 mins by Western blot analysis; type: functional, cell-based; conditions: dose 2.5-20 µM
MDCK [20] = assay: Reduction in NS1 protein expression in Influenza A virus (A/Puerto Rico/8/34) infected in MDCK cell after 60 mins by Western blot analysis; type: functional, cell-based
MDCK [21] = assay: Reduction in NP protein expression in Influenza A virus (A/Puerto Rico/8/34) infected in MDCK cell at 40 uM after 60 mins by Western blot analysis; type: functional, cell-based
[22] = target: Hemagglutinin (Influenza A virus (A/Puerto Rico/8/1934(H1N1))) (UniProt P03452); assay: Blockade of Influenza A virus (A/Puerto Rico/8/34) Hemagglutinin-mediated membrane fusion in Vero cells expressing PR8 HA assessed as syncytium formation at pH 5 and measured at 15 uM measured after 2 hrs by polykaryon assay; type: cell-based
[23] = target: Hemagglutinin (Influenza A virus (A/Puerto Rico/8/1934(H1N1))) (UniProt P03452); assay: Blockade of Influenza A virus (A/Puerto Rico/8/34) Hemagglutinin-mediated membrane fusion in Vero cells expressing PR8 HA assessed as syncytium formation at pH 5 by quantitative membrane fusion assay; type: cell-based; conditions: dose 5-40 µM
[24] = target: Hemagglutinin (Influenza A virus (A/Puerto Rico/8/1934(H1N1))) (UniProt P03452); assay: Inhibition of trypsin-mediated Influenza A virus (A/Puerto Rico/8/34) hemagglutinin protein digestion pretreated at 50 uM for 20 mins at pH 5 followed by treated with trypsin for 30 mins at pH 8.5 by SDS-PAGE/trypsin susceptibility (TS) assay
Influenza A virus [25] = assay: In vivo antiviral activity against Influenza A virus (A/Puerto Rico/8/34) infected in BALB/c mouse assessed as increase in mouse survival at 2.5 mg/kg, po once daily treated after 4 hrs of inoculation for 5 days; type: functional, organism-based; conditions: time 5.0 day
Influenza A virus [26] = assay: In vivo antiviral activity against Influenza A virus (A/Puerto Rico/8/34) infected in BALB/c mouse assessed as increase in mouse survival at 2.5 mg/kg, po once daily treated after 4 hrs of inoculation for 14 days relative to control; type: functional; conditions: A/Puerto Rico/8/34, 336 h, time 14 day
[27] = Toxicity in BALB/c mouse infected with Influenza A virus (A/Puerto Rico/8/34) assessed as death at 2.5 mg/kg, po after 8 days; type: organism-based; conditions: in vivo, 192 h, time 8 day
[28] = Toxicity in BALB/c mouse infected with Influenza A virus (A/Puerto Rico/8/34) assessed as decrease in body weight at 2.5 mg/kg, po upto 8 days; type: organism-based; conditions: in vivo, 192 h, time < 8 day
Influenza A virus [29] = assay: In vivo antiviral activity against Influenza A virus (A/Puerto Rico/8/34) infected in BALB/c mouse assessed as decrease in pulmonary viral titers at 2.5 to 5 mg/kg, po once daily treated after 4 hrs of inoculation for 4 days relative to control; type: functional, organism-based; conditions: dose 2.5-5 mg/kg, time 4.0 day
Influenza A virus [30] = assay: as §1, with “5” for “10”; type: functional, organism-based

Sequence of Hemagglutinin (Influenza A virus (A/Puerto Rico/8/1934(H1N1)), UniProt P03452) (P03452 whole entry): as the sequence (P03452 whole entry, the tested form may be a part) above

With `CCOC(=O)c1c(CSc2ccccc2)n(C)c2cc(Br)c(O)c(CN(C)C)c12` [UMIFENOVIR] as the molecule, how does the Kd [1] read?
Its Kd is 51.4 µM.

For `CCOC(=O)C1=C[C@@H](OC(CC)CC)[C@H](NC(C)=O)[C@@H](N)C1` [OSELTAMIVIR], which CC50 at 48 h [2] is on record?
Its CC50 at 48 h is > 300 µM.

What about the selectivity ratio [3] of the same molecule?
The selectivity ratio was > 26.3.

What about the survival at 10 mg/kg (Influenza A virus [4]) of the same molecule?
The survival at 10 mg/kg was 80%.

And the Activity [5]?
The Activity was “Non-Toxic”.

And the Activity [6]?
The Activity was “Toxic”.

What about the Activity (Influenza A virus [7]) of the same molecule?
Its Activity is “Active”.

Which results are given for `CC(=O)c1cc(C)c(O)c(Cc2[nH]c3ccccc3c2Cc2c(O)c(C)cc(C(C)=O)c2O)c1O`?
CC50 at 48 h [2]: > 300 µM; selectivity ratio [3]: > 11.8; Kd [1]: 8.4 µM; inhibition [8]: Active; inhibition [9]: Active

With `COc1ccc2[nH]c(Cc3c(O)c(C)cc(C(C)=O)c3O)c(Cc3c(O)c(C)cc(C(C)=O)c3O)c2c1` as the molecule, how does the CC50 at 48 h [2] read?
The CC50 at 48 h was > 300 µM.

What about the selectivity ratio [3] of the same molecule?
The selectivity ratio was > 18.9.

For `CC(=O)c1cc(C)c(O)c(Cc2[nH]c3ccc(-c4c5ccccc5cc5ccccc45)cc3c2Cc2c(O)c(C)cc(C(C)=O)c2O)c1O`, which CC50 at 48 h [2] is on record?
Its CC50 at 48 h is > 300 µM.

And the selectivity ratio [3]?
The selectivity ratio was > 44.8.

And the “Ratio IC50” value (Influenza A virus [10])?
Its value is 3.8.

And the “inhibition (INH)” value (Influenza A virus [11])?
Its value is 13.5%.

What about the “inhibition (INH)” value (Influenza A virus [12]) of the same molecule?
The value was 5.6%.

And the “inhibition (INH)” value (Influenza A virus [13])?
Its value is 8.7%.

And the “inhibition (INH)” value (Influenza B virus)?
The value was 3.4%.

What about the CC50 at 48 h [14] of the same molecule?
Its CC50 at 48 h is 180 µM.

And the CC50 at 48 h [15]?
Its CC50 at 48 h is 1350 µM.

What about the IC50 (Influenza A virus [16]) of the same molecule?
The IC50 was < 5 µM.

What about the inhibition (Influenza A virus [17]) of the same molecule?
The inhibition was “Dose-Dependent Effect”.

And the IC50 (Influenza A virus [18])?
The IC50 was < 10 µM.

What about the inhibition (MDCK [19]) of the same molecule?
The inhibition was “Dose-Dependent Effect”.

And the inhibition (MDCK [20])?
Its inhibition is “Dose-Dependent Effect”.

What about the inhibition (MDCK [21]) of the same molecule?
The inhibition was “Active”.

And the Kd [1]?
Its Kd is 6.4 µM.

And the inhibition [22]?
Its inhibition is “Active”.

And the inhibition [23]?
The inhibition was “Dose-Dependent Effect”.

And the inhibition [24]?
The inhibition was “Active”.

And the Activity (Influenza A virus [25])?
The Activity was “Active”.

And the survival at 2.5 mg/kg (Influenza A virus [26])?
Its survival at 2.5 mg/kg is 70%.

And the Activity [27]?
Its Activity is “Toxic”.

And the Activity [28]?
Its Activity is “Non-Toxic”.

What about the Activity (Influenza A virus [29]) of the same molecule?
Its Activity is “Active”.

And the Activity (Influenza A virus [30])?
Its Activity is “Active”.

Which CC50 at 48 h [2] does the source give for `COc1ccc2c(Cc3c(O)c(C)cc(C(C)=O)c3O)c(Cc3c(O)c(C)cc(C(C)=O)c3O)[nH]c2c1` here?
Its CC50 at 48 h is > 300 µM.

And the selectivity ratio [3]?
Its selectivity ratio is > 23.8.

With `CC(=O)c1cc(C)c(O)c(Cc2[nH]c3cc(-c4cc(C)cc(C)c4)ccc3c2Cc2c(O)c(C)cc(C(C)=O)c2O)c1O` as the molecule, how does the CC50 at 48 h [2] read?
Its CC50 at 48 h is > 300 µM.

What about the selectivity ratio [3] of the same molecule?
Its selectivity ratio is > 29.7.

Reference: ChEMBL document CHEMBL5625170, “Design, synthesis, and biological evaluation of novel penindolone derivatives as potential inhibitors of hemagglutinin-mediated membrane fusion” (Eur J Med Chem, 2023)
